Test results taken from patent US5116960A, “Amphotericin B derivatives” (Beecham Group p.l.c., priority 1988, dated 1992).
In brackets after ≈: the same amount, converted by molar mass.

Legend:
Candida albicans 73/079 = experiment: Minimum Inhibitory Concentration (MIC) by broth dilution in microtitre tray, Candida albicans 73/079; format: cell-based; details: 37° C., inoculum 10^5
Method: (§1) The Minimum Inhibitory Concentration (MIC) was determined by diluting the test compound in a broth medium in a microtitre tray. The organisms, which had been grown previously in a broth medium (yeast nitrogen base+1% glucose), were diluted and added to the wells to provide a final inoculum of approximately 10^5 colony-forming units per well. The trays were incubated at 37° C. and the turbidity of each well noted at intervals. The MIC was taken as the lowest concentration (in μg/ml) which prevented significant growth. |Minimum Inhibitory Concentration (μg/ml) |(determined after 2 and 3 days incubation) | *Inoculum 10^5 cells/ml

[1] = tested on: Candida parapsilosis 937 A; experiment: Minimum Inhibitory Concentration (MIC) by broth dilution in microtitre tray, Candida parapsilosis 937 A; format: cell-based; details: 37° C., inoculum 10^5
Method: as §1

[2] = 48 h, Candida albicans 73/079, determined after 2 days incubation
[3] = 72 h, Candida albicans 73/079, determined after 3 days incubation
[4] = 48 h, determined after 2 days incubation
[5] = 72 h, determined after 3 days incubation

C[C@@H]1[C@H](O)[C@@H](C)/C=C/C=C/C=C/C=C/C=C/C=C/C=C/[C@H](O[C@@H]2O[C@H](C)[C@@H](O)[C@H](N)[C@@H]2O)C[C@@H]2OC(=C[C@H](O)[C@H]2CO)C[C@@H](O)C[C@@H](O)[C@H](O)CC[C@@H](O)C[C@@H](O)CC(=O)O[C@H]1C [Example E12]
MIC (Candida albicans 73/079; [2]): 4 µg/mL (≈ 4.48 µM)
MIC (Candida albicans 73/079; [3]): 8 µg/mL (≈ 8.97 µM)
MIC [1, 4]: 8 µg/mL (≈ 8.97 µM)
MIC [1, 5]: 16 µg/mL (≈ 17.9 µM)

COC(=O)[C@H]1[C@@H]2C[C@@H](O[C@@H]3O[C@H](C)[C@@H](O)[C@H](N)[C@@H]3O)/C=C/C=C/C=C/C=C/C=C/C=C/C=C/[C@H](C)[C@@H](O)[C@@H](C)[C@H](C)OC(=O)C[C@H](O)C[C@H](O)CC[C@@H](O)[C@H](O)C[C@H](O)CC(=C[C@@H]1O)O2 [Example E10]
MIC (Candida albicans 73/079; [2]): 16 µg/mL (≈ 17.4 µM)
MIC (Candida albicans 73/079; [3]): 32 µg/mL (≈ 34.8 µM)
MIC [1, 4]: 32 µg/mL (≈ 34.8 µM)
MIC [1, 5]: 32 µg/mL (≈ 34.8 µM)

C[C@@H]1[C@H](O)[C@@H](C)/C=C/C=C/C=C/C=C/C=C/C=C/C=C/[C@H](O[C@@H]2O[C@H](C)[C@@H](O)[C@H](N)[C@@H]2O)C[C@@H]2OC(=C[C@H](O)[C@H]2C(=O)O)C[C@@H](O)C[C@@H](O)[C@H](O)CC[C@@H](O)C[C@@H](O)CC(=O)O[C@H]1C [Example E6, 13,14-Anhydroamphotericin B]
MIC (Candida albicans 73/079; [2]): 2 µg/mL (≈ 2.21 µM)
MIC (Candida albicans 73/079; [3]): 4 µg/mL (≈ 4.41 µM)
MIC [1, 4]: 4 µg/mL (≈ 4.41 µM)
MIC [1, 5]: 8 µg/mL (≈ 8.83 µM)
